Assays:
grass carp fingerlings = assay: Use of furancarboxylic acids in a feed for fish (grass carp growth-promoting test); type: in vivo; conditions: 500 ppm in test feed, 8 weeks; for Weight gain: 100×(final−initial)/initial weight; for FCR (feed conversion rate): feed intake/weight gain
Experimental: Test fish: The test fish used were the healthy and lively grass carp fingerlings of the same year and were reared in a large cage (4×2×1.5 m^3) for 4 weeks before being used for formal breeding tests. The experimental system was a small floating cage (with size of 1.1×1.1×1.1 m^3); each small cage is equipped with a bubbling head, and bubbling 24 hours a day. The small cages and the temporary cages were placed in a test facility, a 3500 m^2 pond, the pond depth was about 1.5 m, and the pond water was fully aerated bottom water. During the test, 240 grass carps that had been starved for 1 day were randomly divided into 3 groups, each group was provided with 4 replicates, and 20 fish were placed in each replicate. Each replicate was weighed and placed into 12 cages, respectively fed with a test feed supplemented with a compound of furancarboxylic acids.
Test feed: The test feed was prepared according to the formula in Table 3, and 500 ppm of a compound of furancarboxylic acids were added to different test groups according to Table 4. The feedstuff used was ultrafinely grinded and then passed through the Jiangsu Muyang extruder to make a floating extruded feed with a particle size of 3 mm. The mold release temperature was 130° C., and 3% soybean oil was sprayed externally through the oil injection equipment, and sealed in a cool place for use.
Procedures: The experiment adopts artificial food restriction feeding, the feeding amount is adjusted once a week, the feeding level (based on the initial body weight) of each group is exactly the same, feeding twice a day (at 7:30 am and 15:00 pm), and the total feeding amount is 580 g per replicate. The test lasted 8 weeks. The water quality was monitored regularly during the test. The water temperature was 26.88±3.08° C., with DO>5.0 mg O L^−1, pH 7.8, ammonia nitrogen <0.50 mg N L^−1, and nitrite nitrogen <0.05 mg N L^−1 during the whole breeding process.
Parameter statistics: During the test, the fish in each cage were weighed as a whole 1 day of stopping feeding, and their weight gain (WG, %), feed conversion rate (FCR) and survival rate (SR, %) were calculated as follows:
Weight gain (WG, %)=100×(average final weight−average initial weight)/average initial weight;
Feed conversion rate (FCR)=feed intake/weight gain of fish;
Survival rate (SR, %)=100×number of fish at the end of the experiment/number of fish at the beginning of the experiment.

weaned piglets = assay: Effects of furancarboxylic acids on performance of weaned piglets; type: in vivo, Duroc-landrace-yorkshire swine; conditions: 65-day-old pigs, basal diet comprising 2000 ppm test article, 28 days, mean
Excerpt: A total of 120 65-day-old Duroc-landrace-yorkshire swine with similar body weight were randomly divided into 4 groups, each with 3 replicates, half male and female, […]. The pigpen and utensils were disinfected before the test. During the period of test, pigs were kept in separate pens under the same feeding and management conditions. During the test, the test pigs were fed with food and water ad libitum, and were fed twice a day. The test groups are shown in Table 1, among which, group I was the control group, and was only fed with the basal diet; test groups II, III and IV were fed with the basal diet comprising 2000 ppm of a compound of furancarboxylic acids shown in Table 1, respectively. […] The test lasted 28 days, and the performances of the test pigs, for example, the average daily feed intake (ADFI, g/d*pig), average daily weight gain (ADG, g/d*pig) and feed conversion ratio (FCR) of each pig were counted.

[1] = tested on: yellow-feathered broilers; assay: Use of furancarboxylic acids in a feed for chicken (broiler performance); type: in vivo; conditions: 1-day-old broilers, basal diet comprising 1000 ppm test article, 20 days, mean
Excerpt: This experiment adopted a single-factor randomization design. 480 1-day-old broilers with an average body weight of 50 g were selected and randomly divided into 4 groups, with 6 replicates in each group, half male and female, 20 yellow-feathered broilers per replicate. The chicken house and utensils were disinfected before the test. During the period of test, broilers were kept in cages under the same feeding and management conditions. The basal diet is mainly based on corn-soybean meal, and other antioxidants and growth promoters are not added during the whole feeding. The test groups are shown in Table 2, among which, group I was the control group, and was only fed with the basal diet; test groups II, III and IV were fed with the basal diet comprising 1000 ppm of a compound of furancarboxylic acids shown in Table 2, respectively. The test lasted 20 days, and the test broilers were fed with food and water ad libitum, and were fed twice a day. Test broilers in each replicate were weighed at 21 days of age (stop feeding for 12 hours and keep water). The feed consumption of the test broilers was counted, and the average daily feed intake (ADFI, g/d*broiler), average daily weight gain (ADG, g/d*broiler) and feed conversion ratio (FCR) of each test broiler were calculated.

SMILES	Average final weight (grass carp fingerlings)	SR (survival rate) (grass carp fingerlings)	Weight gain (grass carp fingerlings)	FCR (feed conversion rate) (grass carp fingerlings)	ADFI (average daily feed intake) (weaned piglets)	ADG (average daily weight gain) (weaned piglets)	FCR (feed conversion ratio) (weaned piglets)	ADFI (average daily feed intake) [1]	ADG (average daily weight gain) [1]	FCR (feed conversion ratio) [1]
O=C(O)c1ccco1 [2-Furancarboxylic acid]	586.87 g	82.50%	134.96%	1.48	1274 g/d*pig	512 g/d*pig	2.489	35.2 g/d*broiler	16.9 g/d*broiler	2.08
O=C(O)c1coc(C(=O)O)c1 [2,4-Furandicarboxylic acid]	–	–	–	–	1263 g/d*pig	507 g/d*pig	2.490	36.5 g/d*broiler	17.4 g/d*broiler	2.10
O=C(O)c1ccoc1 [3-Furancarboxylic acid]	589.33 g	83.75%	138.98%	1.48	1240 g/d*pig	498 g/d*pig	2.491	34.0 g/d*broiler	16.4 g/d*broiler	2.07

— patent US20240277653A1, “USE OF FURANCARBOXYLIC ACIDS IN THE PREPARATION OF ADDITIVES FOR ANIMAL FEEDS” (ANIPHA TECHNOLOGIES PTY LTD, priority 2021, published 2024)
